Common to all, as to format: in vivo, human
Series [1] has as its system sleep disturbance. As to the kind of experiment: PROMIS Sleep Disturbance 8A survey, randomized blinded placebo-controlled study. As for the experimental part: (§1) The primary aim of this study was to assess the effects of three different formulations of TruCBN softgels and a formulation of 4 mg melatonin on sleep quality, relative to placebo control. There were 5 arms within the study; (1) 4 mg melatonin, (2) 25 mg CBN, (3) 50 mg CBN, (4) 100 mg CBN, and (5) placebo (see Table 1 for further details on study arm formulations). All study arms provided the test article as a softgel. Participants were instructed to take 1 softgel 1-2 hours before bed. To ensure that results were not biased, participants were randomly assigned to product, were blinded to the contents, and were not told what they were taking until the conclusion of the study. The secondary aim of the study was to assess the tolerability of the three formulations of TruCBN softgels and 4 mg melatonin, relative to placebo.
(§2) Study participants were at least 21 years old, endorsed a desire for better sleep quality, and expressed interest in taking a cannabinoid product to improve their sleep. The study was entirely virtual; participants were recruited through online recruitment channels, study product was delivered directly to participants' homes, and all data were collected via online surveys delivered to their mobile device or computer. There were four phases of the study (see FIG. 1 for study timeline): (1) Recruitment and Randomization, (2) Baseline (1 week), (3) Study period (2-5 weeks), and (4) Conclusion.
PROMIS™ Sleep Disturbance 8A: An 8-question survey, with severity thresholds based on T-scores not raw scores. The severity scores are established as follows: • “None to slight”=Less than 55 • “Mild”=55.0-59.9 • “Moderate”=60.0-69.9 • “Severe”=70 and up
The range of raw scores were from 8 to 40, with higher scores translating to greater sleep disturbance (i.e., worse sleep quality). PROMIS™ Sleep Disturbance 8A threshold for minimally important difference: One-half the standard deviation of the baseline score (Purvis, Taylor E. et al., SPINE, 2018, 43(21):1512-1520).
(§3) After receiving study product, each participant was instructed to take 1 softgel each day orally 1-2 hours before bed and complete weekly health and product use surveys. This phase of the study lasted about 4 weeks.
(§4) For precision, adjustments were made for sex, age, race, ethnicity, and body mass index (BMI) in every model. […] Analysis was conducted using Stata 17 and R. An intent-to-treat analysis was run, meaning that all participants who were assigned product (aside from the aforementioned exclusions) were included in the analysis according to their product assignment, regardless of product adherence or study attrition. Visuals of the predicted marginal means of health scores, rather than the raw mean scores, were prepared. Predicted marginal means were calculated from the statistical models and better represent the true differences between arms adjusting for any potential imbalances across arms. A finding that was “significant” means that the likelihood of falsely rejecting the null hypothesis that there were no differences between groups was very small (less than 5%; i.e., the p-value was less than 0.05). In other words, when certain findings were said to be “significant” they are not considered the result of random variation.

In series [2] the test system is sleep disturbance. Description: PROMIS Sleep Disturbance SF4A survey, randomized blinded placebo-controlled study. On the procedure:
as §1, §2
The PROMIS™ Sleep Disturbance SF4A threshold for minimally important difference: One-half the standard deviation of the baseline score (Norman, G. R. et al., Med. Care, 2003, 41:582-592).
as §3, §4

The subject of series [3] is sleep disturbance. As to the kind of experiment: Participant global impression of change (PGIC) in sleep disturbance. As for the experimental part: as §1
Participants received a final study survey asking about their overall experiences and impressions. Afterwards they also receive a Report containing their individualized data.
as §4

The nature of series [4]: Average time to effect reported by participants. The following applies: 4 mg melatonin softgel, oral. On the procedure: as §3
Participants reported experiencing an effect between 46 and 55 minutes after taking their study product.

A short description of series [5]: Tolerability: side effects reported by participants. The following applies: 4 mg melatonin. As for the experimental part: as §1, §3
The side effects for all study arms were similar in frequency and mostly mild; none were considered serious or required use of emergency or non-emergency healthcare services. The most commonly reported side effect was grogginess or drowsiness (see FIG. 7). Additional side effects reported by some participants included: chest pain, constipation, urinary tract infection, tingling in lips, dry mouth, weight gain, dry or itchy eyes, low libido, rash, and brain fog.

The mark [6] stands for this setting: 4 mg melatonin − placebo, 95% CI in parentheses.
[7] abbreviates: 4 mg melatonin, 30% or greater reduction from baseline.
[8] abbreviates: 4 mg melatonin, improvement = 30% or greater reduction from baseline, 95% CI in parentheses.

With `COc1ccc2[nH]cc(CCNC(C)=O)c2c1` [melatonin, reference compound], the “Parameter Estimate for PROMIS Sleep Disturbances 8a, Treatment” value in the series on sleep disturbance [1] (4 mg Melatonin, reference placebo, linear mixed-effects model) is −0.56. In addition, the “Relative Risk for meaningful clinical improvement on the PROMIS Sleep Disturbance 8A” value in the series with sleep disturbance [1] (setting [6]) was 1.43 (0.7, 2.16). The “Observed % Achieving Meaningful Clinical Improvement on the PROMIS Sleep 8A” value in the series on sleep disturbance [1] (setting [7]) came to 51.9%. In addition, the “% experiencing MCID in PROMIS Sleep Disturbance 8A score” value in the series with sleep disturbance [1] (4 mg melatonin, MCID = score reduction of one half the standard deviation of the baseline score) is 51.9%. Also, in the series on sleep disturbance [1] (setting [8]), the “Estimated marginal percentage achieving meaningful clinical improvement on the PROMIS Sleep 8A” value was 50.5% (37.54%, 67.94%). Further, the “Estimated marginal mean, PROMIS Sleep Disturbance 8A” value is recorded as 20.7 with sleep disturbance [1] (4 mg melatonin, week 1); 20.4 in the series with sleep disturbance [1] (4 mg melatonin, week 2); 20.7 with sleep disturbance [1] (4 mg melatonin, week 3); 20.4 with sleep disturbance [1] (4 mg melatonin, week 4). Further, in the series with sleep disturbance [2] (setting [6]), the “Relative Risk for meaningful clinical improvement on the PROMIS Sleep SF4A” value is 1.49 (0.74, 2.25). In the series with sleep disturbance [2] (setting [7]), the “Observed % Achieving Meaningful Clinical Improvement on the PROMIS Sleep SF4A” value was 53.25%. Also, the “Estimated marginal percentage achieving meaningful clinical improvement on the PROMIS Sleep SF4A” value in the series on sleep disturbance [2] (setting [8]) was 51.25% (38.25%, 68.7%). For the same compound, the “Estimated marginal mean, PROMIS Sleep Disturbance SF4A” value in the series with sleep disturbance [2] (4 mg melatonin, week 1) is listed as 10.8; with sleep disturbance [2] (4 mg melatonin, week 2), 10.7; in the series with sleep disturbance [2] (4 mg melatonin, week 3) it was 10.7; in the series on sleep disturbance [2] (4 mg melatonin, week 4) it was 10.5. Moreover, the “Parameter estimate for PGIC in sleep disturbance” value with sleep disturbance [3] (4 mg Melatonin, treatment reference placebo, log-odds scale) was 0.79. Moreover, the “Marginal mean (95% confidence interval), sleep disturbance PGIC” value in the series with sleep disturbance [3] (4 mg melatonin) is 3.88. Also, in the series on sleep disturbance [3] (4 mg melatonin − placebo, Dunnett correction), the “Odds Ratio (95% Confidence interval), sleep disturbance PGIC” value is given as 2.21 (1.15, 4.21). The “Average time to effect” value in series [4] is 49.1 min. Besides, the “% of participants reporting any side effects” value in series [5] is recorded as 11.9%.

Values taken from US20250009765A1, “COMPOSITIONS AND METHODS FOR REDUCING SLEEP DI[…] TREATING SLEEP DISORDERS” (FloraScience Inc., priority 2023, published 2025).
